Legend:
Test in all cases: MIC determination
KP (GJ 5659 TEM-26) = type: cell-based, Klebsiella pneumoniae; details: CAMH broth, 20 μM Apo-Transferrin, 37° C., 18 hours
Protocol: (§1) Sterile technique was used throughout these experiments. Suspensions of organisms were removed from storage (−80° C.) and partially thawed. Partially thawed organisms (1 μL) were inoculated into 3 mL sterile LB Broth in a sterile culture tube and capped, then cultured at 37° C. with shaking for 4-5 hours until the optical density at 600 nm (OD600) was greater than 0.1 on a single beam spectrophotometer.
(§2) The concentration of organisms was adjusted to 0.08-0.1 OD600 (0.5 McFarland units) by dilution with sterile cation-adjusted Meuller-Hinton (CAMH) broth. The suspensions were used within 30 minutes of preparation.
(§3) A stock solution was made of each test compound by measuring 6.4 mg of the compound on an analytical balance and dissolving it in DMSO (1 mL) to get a transparent solution. The solutions were stored at −20° C. and thawed prior to use.
(§4) Sterile CAMH broth (200 μL) containing 20 μM Apo-Transferrin was pipetted into the first row of 8 columns of a sterile, round-bottomed, transparent, 96-well microplate using an 8-channel pipette equipped with sterile tips. One hundred μL was pipetted into the wells of the remaining 11 rows.
(§5) With an 8-channel pipette equipped with sterile tips, 100 μL of the first row solution was transferred to the second row and mixed. The process was repeated for the second to third rows and continued through row 11. One hundred μL from row 11 was removed and discarded so that all 12 rows contained 100 μL. Row 12 contained no compound and rows 1-11 contained 64, 32, 16, 8, 4, 2, 1, 0.5, 0.25, 0.125, […] of a given compound.
(§6) Inoculant suspensions (0.5 μL) were added to the 12 wells of each column. The plates were then covered and incubated at 37° C. overnight for 18 hours.
(§7) For each organism the MIC was determined by identifying the transparent well with the lowest test compound concentration.

KP (RR -1) = type: cell-based, Klebsiella pneumoniae; details: CAMH broth, 20 μM Apo-Transferrin, 37° C., 18 hours
Protocol: as §1, §2, §3, §4, §5, §6, §7

KP (URMC-2) = type: cell-based, Klebsiella pneumoniae; details: CAMH broth, 20 μM Apo-Transferrin, 37° C., 18 hours
Protocol: as §1, §2, §3, §4, §5, §6, §7

KP(GJ 5934 TEM-26) = type: cell-based, Klebsiella pneumoniae; details: CAMH broth, 20 μM Apo-Transferrin, 37° C., 18 hours
Protocol: as §1, §2, §3, §4, §5, §6, §7

KP (URMC-1) = type: cell-based, Klebsiella pneumoniae; details: CAMH broth, 20 μM Apo-Transferrin, 37° C., 18 hours
Protocol: as §1, §2, §3, §4, §5, §6, §7

KP (URMC-3) = type: cell-based, Klebsiella pneumoniae; details: CAMH broth, 20 μM Apo-Transferrin, 37° C., 18 hours
Protocol: as §1, §2, §3, §4, §5, §6, §7

KP (ATCC KPC-3) = type: cell-based, Klebsiella pneumoniae; details: CAMH broth, 20 μM Apo-Transferrin, 37° C., 18 hours
Protocol: as §1, §2, §3, §4, §5, §6, §7

KP(JMI KPC-2) = type: cell-based, Klebsiella pneumoniae; details: CAMH broth, 20 μM Apo-Transferrin, 37° C., 18 hours
Protocol: as §1, §2, §3, §4, §5, §6, §7

[1] = test system: Pseudomonas aeruginosa PA-RR-(98023895); type: cell-based; details: Pseudomonas aeruginosa; PA-RR-(98023895); CAMH broth, 20 μM Apo-Transferrin, 37° C., 18 hours; read-out: Minimum Inhibitory Concentrations, PA-RR-(98023895)
Summary of the method: (§8)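 Broth microdilution in cation-adjusted Mueller-Hinton broth with 20 μM apo-transferrin, two-fold compound series from 64 μg/mL, inoculum adjusted to 0.5 McFarland from 4-5 h LB cultures. Plates incubated 18 h at 37 °C. MIC taken as lowest concentration leaving a clear well.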

[2] = test system: Pseudomonas aeruginosa (PA); type: cell-based; details: Pseudomonas aeruginosa; PA; CAMH broth, 20 μM Apo-Transferrin, 37° C., 18 hours; read-out: Minimum Inhibitory Concentrations, PA
Summary of the method: as §8

[3] = test system: Pseudomonas aeruginosa PA (URMC-2); type: cell-based; details: Pseudomonas aeruginosa; PA (URMC-2); CAMH broth, 20 μM Apo-Transferrin, 37° C., 18 hours; read-out: Minimum Inhibitory Concentrations, PA (URMC-2)
Summary of the method: as §8

[4] = test system: Pseudomonas aeruginosa PA-RR-(G7304100); type: cell-based; details: Pseudomonas aeruginosa; PA-RR-(G7304100); CAMH broth, 20 μM Apo-Transferrin, 37° C., 18 hours; read-out: Minimum Inhibitory Concentrations, PA-RR-(G7304100)
Summary of the method: as §8

[5] = test system: Pseudomonas aeruginosa PA (URMC-3); type: cell-based; details: Pseudomonas aeruginosa; PA (URMC-3); CAMH broth, 20 μM Apo-Transferrin, 37° C., 18 hours; read-out: Minimum Inhibitory Concentrations, PA (URMC-3)
Summary of the method: as §8

[6] = test system: Pseudomonas aeruginosa PA-RR-(G7294437); type: cell-based; details: Pseudomonas aeruginosa; PA-RR-(G7294437); CAMH broth, 20 μM Apo-Transferrin, 37° C., 18 hours; read-out: Minimum Inhibitory Concentrations, PA-RR-(G7294437)
Summary of the method: as §8

ENC (ATCC NDM-1) = type: cell-based, Enterobacter cloacae; details: CAMH broth, 20 μM Apo-Transferrin, 37° C., 18 hours
Protocol: as §1, §2, §3, §4, §5, §6, §7

A. baumannii = type: cell-based, Acinetobacter baumannii; details: for MIC: Acinetobacter baumannii, A. baumannii, CAMH broth, 20 μM Apo-Transferrin, 37° C., 18 hours, read-out: Minimum Inhibitory Concentrations, A. baumannii; for MICs for an Acinetobacter baumannii strain, in words: review of Table 2
Protocol: as §1, §2, §3, §4, §5, §6, §7

[7] = test system: A. baumannii (JMI OXA-58); type: cell-based, Acinetobacter baumannii; details: Acinetobacter baumannii, class D carbapenemase producer, CAMH broth, 20 μM Apo-Transferrin, 37° C., 18 hours, read-out: Minimum Inhibitory Concentrations, A. baumannii (JMI OXA-58)
Protocol: as §1, §2, §3, §4, §5, §6, §7

EC (RR -2) = type: cell-based, Escherichia coli; details: CAMH broth, 20 μM Apo-Transferrin, 37° C., 18 hours
Protocol: as §1, §2, §3, §4, §5, §6, §7

EC (URMC-2) = type: cell-based, Escherichia coli; details: Escherichia coli, CAMH broth, 20 μM Apo-Transferrin, 37° C., 18 hours, read-out: Minimum Inhibitory Concentrations, EC (URMC-2)
Protocol: as §1, §2, §3, §4, §5, §6, §7

EC(JMI OXA-48) = type: cell-based, Escherichia coli; details: Escherichia coli, CAMH broth, 20 μM Apo-Transferrin, 37° C., 18 hours, read-out: Minimum Inhibitory Concentrations, EC(JMI OXA-48)
Protocol: as §1, §2, §3, §4, §5, §6, §7

EC (RR -1) = type: cell-based, Escherichia coli; details: CAMH broth, 20 μM Apo-Transferrin, 37° C., 18 hours
Protocol: as §1, §2, §3, §4, §5, §6, §7

EC(ATCC NDM-1) = type: cell-based, Escherichia coli; details: Escherichia coli, CAMH broth, 20 μM Apo-Transferrin, 37° C., 18 hours, read-out: Minimum Inhibitory Concentrations, EC(ATCC NDM-1)
Protocol: as §1, §2, §3, §4, §5, §6, §7

EC (URMC-1) = type: cell-based, Escherichia coli; details: Escherichia coli, CAMH broth, 20 μM Apo-Transferrin, 37° C., 18 hours, read-out: Minimum Inhibitory Concentrations, EC (URMC-1)
Protocol: as §1, §2, §3, §4, §5, §6, §7

EC(KB2 CTX-M-15) = type: cell-based, Escherichia coli; details: Escherichia coli, CAMH broth, 20 μM Apo-Transferrin, 37° C., 18 hours, read-out: Minimum Inhibitory Concentrations, EC(KB2 CTX-M-15)
Protocol: as §1, §2, §3, §4, §5, §6, §7

EC(KB1 CTX-M-15) = type: cell-based, Escherichia coli; details: Escherichia coli, CAMH broth, 20 μM Apo-Transferrin, 37° C., 18 hours, read-out: Minimum Inhibitory Concentrations, EC(KB1 CTX-M-15)
Protocol: as §1, §2, §3, §4, §5, §6, §7

EC (URMC-3) = type: cell-based, Escherichia coli; details: Escherichia coli, CAMH broth, 20 μM Apo-Transferrin, 37° C., 18 hours, read-out: Minimum Inhibitory Concentrations, EC (URMC-3)
Protocol: as §1, §2, §3, §4, §5, §6, §7

EA (URMC -3) = type: cell-based; details: CAMH broth, 20 μM Apo-Transferrin, 37° C., 18 hours
Protocol: as §1, §2, §3, §4
To each well of the first row was pipetted 2.0 μL of the 6.4 mg/mL stock test compound stock solution to give 1:100 dilutions and a final concentration of 64 μg/mL and mixed.
as §5, §6, §7

Structure (SMILES)	Minimum Inhibitory Concentrations, KP (GJ 5659 TEM-26) (KP (GJ 5659 TEM-26)) [microgram/mL]	Mimimum Inhibitory Concentrations, KP (RR -1) (KP (RR -1)) [microgram/mL]	Minimum Inhibitory Concentrations, KP (URMC-2) (KP (URMC-2)) [microgram/mL]	Minimum Inhibitory Concentrations, KP(GJ 5934 TEM-26) (KP(GJ 5934 TEM-26)) [microgram/mL]	Minimum Inhibitory Concentrations, KP (URMC-1) (KP (URMC-1)) [microgram/mL]	Minimum Inhibitory Concentrations, KP (URMC-3) (KP (URMC-3)) [microgram/mL]	Minimum Inhibitory Concentrations, KP (ATCC KPC-3) (KP (ATCC KPC-3)) [microgram/mL]	Minimum Inhibitory Concentrations, KP(JMI KPC-2) (KP(JMI KPC-2)) [microgram/mL]	MIC [1] [µg/mL]	MIC [2] [µg/mL]	MIC [3] [µg/mL]	MIC [4] [µg/mL]	MIC [5] [µg/mL]	MIC [6] [µg/mL]	Mimimum Inhibitory Concentrations, ENC (ATCC NDM-1) (ENC (ATCC NDM-1)) [microgram/mL]	MIC (A. baumannii) [µg/mL]	MICs for an Acinetobacter baumannii strain, in words (A. baumannii)	MIC [7] [µg/mL]	Mimimum Inhibitory Concentrations, EC (RR -2) (EC (RR -2)) [microgram/mL]	MIC (EC (URMC-2)) [µg/mL]	also measured
CC(C)(O/N=C(\C(=O)N[C@@H]1C(=O)N2C(C(=O)O)=C(C=Cc3ccc(C[N+]4(C)Cc5cc(O)c(O)c(Cl)c5C4)cc3)CS[C@H]12)c1csc(N)n1)C(=O)O (mixture of isomers) [Compound 432, 2-(4-((E/Z)-2-((6R,7R)-7-((Z)-2-(2-aminothiazol-4-yl)-2-(((2-carboxypropan-2-yl)oxy)imino)acetamido)-2-carboxy-8-oxo-5-thia-1-azabicyclo[4.2.0]oct-2-en-3-yl)vinyl)benzyl)-4-chloro-5,6-dihydroxy-2-methylisoindolin-2-ium]	1	0.25	≤0.06	0.13	0.13	≤0.06	>64	64	4	0.25	0.5	≤ 0.06	1	≤ 0.06	>64	1	low microgram/mL MICs	> 64	≤0.06	≤ 0.06	MIC (EC(JMI OXA-48)): 0.5 µg/mL; Mimimum Inhibitory Concentrations, EC (RR -1) (EC (RR -1)): ≤0.06 microgram/mL; MIC (EC(ATCC NDM-1)): > 64 µg/mL; MIC (EC (URMC-1)): 0.5 µg/mL; MIC (EC(KB2 CTX-M-15)): 1 µg/mL; MIC (EC(KB1 CTX-M-15)): 1 µg/mL; MIC (EC (URMC-3)): 0.13 µg/mL; Mimimum Inhibitory Concentrations, EA (URMC -3) (EA (URMC -3)): 0.5 microgram/mL
CC(C)(O/N=C(\C(=O)N[C@@H]1C(=O)N2C(C(=O)O)=C(C=Cc3ccc(C[N+]4(C)CCc5ccc(O)c(O)c5C4)cc3)CS[C@H]12)c1csc(N)n1)C(=O)O (mixture of isomers) [Compound 442, 2-(4-((E/Z)-2-((6R,7R)-7-((Z)-2-(2-aminothiazol-4-yl)-2-(((2-carboxypropan-2-yl)oxy)imino)acetamido)-2-carboxy-8-oxo-5-thia-1-azabicyclo[4.2.0]oct-2-en-3 yl)vinyl)benzyl)-7,8-dihydroxy-2-methyl-1,2,3,4-tetrahydroisoquinolin-2-ium]	0.5	0.25	0.25	0.5	0.13	≤0.06	>64	64	8	0.13	0.25	≤ 0.06	0.5	≤ 0.06	>64	1	low microgram/mL MICs	> 64	0.13	0.13	MIC (EC(JMI OXA-48)): 4 µg/mL; Mimimum Inhibitory Concentrations, EC (RR -1) (EC (RR -1)): 0.25 microgram/mL; MIC (EC(ATCC NDM-1)): > 64 µg/mL; MIC (EC (URMC-1)): 0.25 µg/mL; MIC (EC(KB2 CTX-M-15)): 32 µg/mL; MIC (EC(KB1 CTX-M-15)): 32 µg/mL; MIC (EC (URMC-3)): 0.13 µg/mL; Mimimum Inhibitory Concentrations, EA (URMC -3) (EA (URMC -3)): 1 microgram/mL

From patent US20190100534A1, “Cephem Compounds with Latent Reactive Groups” (Gladius Pharmaceuticals, Inc., priority 2017, published 2019)
